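Grown in 96-well plates, cells were treated for 48 hours with each compound at five concentrations. Insufficient inhibition: endpoint recorded as highest concentration tested. At the TGI there is no net growth.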
Key:
Assay in all cases: growth of human tumour cells (NCI), 48 h
[1] = system: SF-539 CNS
[2] = system: DLD-1 colon
[3] = system: COLO 205 colon
[4] = system: NCI-H460 lung
[5] = system: SF-295 CNS
[6] = system: SW-620 colon
[7] = system: UACC-257 melanoma
[8] = system: EKVX NSCLC
[9] = system: XF 498 CNS
[10] = system: RPMI-8226 leukemia
[11] = system: SK-OV-3 ovarian
[12] = system: UACC-62 melanoma
[13] = system: M14 melanoma
[14] = system: SNB-75 CNS
[15] = system: MOLT-4 leukemia
[16] = system: RXF-631 renal
[17] = system: KM12 colon
[18] = system: KM20L2 colon
[19] = system: SF-268 CNS
[20] = system: NCI-H226 lung
[21] = system: OVCAR-3 ovarian
[22] = system: IGROV1 ovarian
[23] = system: LOX IMVI melanoma
[24] = system: ACHN renal
[25] = system: OVCAR-5 ovarian
[26] = system: MALME-3M melanoma
[27] = system: CCRF-CEM leukemia
[28] = system: DMS 114 small cell lung
[29] = system: M19-MEL melanoma
[30] = system: OVCAR-4 ovarian
[31] = system: DMS 273 small cell lung
[32] = system: UO-31 renal
[33] = system: SNB-19 CNS
[34] = system: HOP-92 NSCLC
[35] = system: NCI-H522 lung
[36] = system: HCC-2998 colon
[37] = system: TK-10 renal
[38] = system: HT29 colon
[39] = system: 786-0 renal
[40] = system: OVCAR-8 ovarian
[41] = system: SK-MEL-5 melanoma
[42] = system: HOP-18 NSCLC
[43] = system: NCI-H23 lung
[44] = system: SK-MEL-28 melanoma
[45] = system: HCT-116 colon
[46] = system: RXF 393 renal
[47] = system: HOP-62 NSCLC
[48] = system: K-562 leukemia
[49] = system: SN12C renal
[50] = system: LXFL 529 NSCLC
[51] = system: A549 NSCLC

Work on `CCOc1cccc2ccc[n+](CC)c12` yielded a TGI [1] greater than 100 µM, a TGI [2] greater than 100 µM and a TGI [3] greater than 100 µM. The TGI [4] was greater than 100 µM, the TGI [5] was greater than 100 µM and the TGI [6] was greater than 100 µM. It also gave a TGI [7] greater than 100 µM, a TGI [8] greater than 100 µM and a TGI [9] greater than 100 µM. The TGI [10] was greater than 100 µM, the TGI [11] was greater than 100 µM and the TGI [12] was greater than 100 µM. It also gave a TGI [13] greater than 100 µM, a TGI [14] greater than 100 µM and a TGI [15] greater than 100 µM. For the same compound, the TGI [16] was greater than 100 µM, the TGI [17] was greater than 100 µM and the TGI [18] was greater than 100 µM. The TGI [19] was 77.9 µM, the TGI [20] was greater than 100 µM and the TGI [21] was greater than 100 µM. It also gave a TGI [22] greater than 100 µM, a TGI [23] greater than 100 µM and a TGI [24] greater than 100 µM. For the same compound, the TGI [25] was greater than 100 µM, the TGI [26] was greater than 100 µM and the TGI [27] was greater than 100 µM. For the same compound, the TGI [28] was greater than 100 µM, the TGI [29] was greater than 100 µM and the TGI [30] was greater than 100 µM. It also gave a TGI [31] greater than 100 µM, a TGI [32] greater than 100 µM and a TGI [33] greater than 100 µM. The TGI [34] was greater than 100 µM, the TGI [35] was greater than 100 µM and the TGI [36] was greater than 100 µM. It also gave a TGI [37] greater than 100 µM, a TGI [38] greater than 100 µM and a TGI [39] greater than 100 µM. It also gave a TGI [40] greater than 100 µM, a TGI [41] greater than 100 µM and a TGI [42] greater than 100 µM. It also gave a TGI [43] greater than 100 µM, a TGI [44] greater than 100 µM and a TGI [45] greater than 100 µM. For the same compound, the TGI [46] was greater than 100 µM, the TGI [47] was greater than 100 µM and the TGI [48] was greater than 100 µM. For the same compound, the TGI [49] was greater than 100 µM, the TGI [50] was greater than 100 µM and the TGI [51] was greater than 100 µM.

Source: PubChem BioAssay (NCI)
